Assay: Water solubility / water-dispersability comparison (FIG. 1)
Type: physicochemical
Conditions: dispersed in water, visual

C=C1CC[C@@H]2[C@](C)(CO)[C@H](O)CC[C@@]2(C)[C@@H]1C/C=C1/C(=O)OC[C@H]1O [known 99% andrographolide, Andrographolide]
water-dispersability (FIG. 1): insoluble in water

Reference: patent US12133916B2, “Process for producing an andrographolide carrier system” (priority 2021, dated 2024)
